{
  "source": "paper PMC4929832",
  "about": "(Nature, 2016)",
  "key": {"LIMK1": {"target": "LIMK1 (Homo sapiens, UniProt P53667)", "assay": "kinase panel", "assay_type": "biochemical"}, "JNK1": {"target": "JNK1 (Homo sapiens, UniProt P45983)", "sequence (P45983 whole entry)": "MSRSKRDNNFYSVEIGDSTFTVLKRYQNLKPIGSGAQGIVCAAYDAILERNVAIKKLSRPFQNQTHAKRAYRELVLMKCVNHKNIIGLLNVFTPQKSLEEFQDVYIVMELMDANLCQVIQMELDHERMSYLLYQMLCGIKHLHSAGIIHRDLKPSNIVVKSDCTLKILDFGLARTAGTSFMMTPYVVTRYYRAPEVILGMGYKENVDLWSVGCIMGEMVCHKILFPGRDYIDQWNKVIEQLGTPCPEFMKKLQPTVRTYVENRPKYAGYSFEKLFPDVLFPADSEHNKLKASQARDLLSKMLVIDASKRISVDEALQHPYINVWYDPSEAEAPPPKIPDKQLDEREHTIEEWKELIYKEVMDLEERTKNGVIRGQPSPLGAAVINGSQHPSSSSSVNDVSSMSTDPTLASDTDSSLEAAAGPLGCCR", "assay": "kinase panel", "assay_type": "biochemical"}, "TAK1-TAB1": {"target": "TAK1-TAB1 (Homo sapiens, UniProt O43318)", "assay": "kinase panel", "assay_type": "biochemical"}, "MARK4": {"target": "MARK4 (Homo sapiens, UniProt Q96L34)", "sequence (Q96L34 whole entry)": "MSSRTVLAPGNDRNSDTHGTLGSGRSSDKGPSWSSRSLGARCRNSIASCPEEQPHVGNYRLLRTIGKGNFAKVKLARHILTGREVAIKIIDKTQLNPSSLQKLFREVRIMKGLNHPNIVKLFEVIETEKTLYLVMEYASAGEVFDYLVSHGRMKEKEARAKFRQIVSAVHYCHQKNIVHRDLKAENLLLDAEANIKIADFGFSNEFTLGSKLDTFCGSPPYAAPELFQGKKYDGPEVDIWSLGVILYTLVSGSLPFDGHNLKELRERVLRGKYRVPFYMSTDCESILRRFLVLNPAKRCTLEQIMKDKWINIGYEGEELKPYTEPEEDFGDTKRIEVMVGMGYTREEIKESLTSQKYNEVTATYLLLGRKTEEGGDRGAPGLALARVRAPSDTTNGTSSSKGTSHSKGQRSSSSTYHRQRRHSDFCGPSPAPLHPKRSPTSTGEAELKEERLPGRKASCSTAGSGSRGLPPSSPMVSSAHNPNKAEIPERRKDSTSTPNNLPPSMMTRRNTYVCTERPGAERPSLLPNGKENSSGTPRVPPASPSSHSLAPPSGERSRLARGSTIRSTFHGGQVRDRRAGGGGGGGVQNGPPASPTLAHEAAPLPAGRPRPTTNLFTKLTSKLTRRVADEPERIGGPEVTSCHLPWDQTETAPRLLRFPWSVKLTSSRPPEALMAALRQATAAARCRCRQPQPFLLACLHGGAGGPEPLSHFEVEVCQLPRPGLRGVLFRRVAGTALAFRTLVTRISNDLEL", "assay": "kinase panel", "assay_type": "biochemical"}, "CHEK1": {"target": "CHEK1 (Homo sapiens, UniProt O14757)", "assay": "kinase panel", "assay_type": "biochemical"}, "RSK1": {"target": "RSK1 (Homo sapiens, UniProt Q15418)", "sequence (Q15418 whole entry)": "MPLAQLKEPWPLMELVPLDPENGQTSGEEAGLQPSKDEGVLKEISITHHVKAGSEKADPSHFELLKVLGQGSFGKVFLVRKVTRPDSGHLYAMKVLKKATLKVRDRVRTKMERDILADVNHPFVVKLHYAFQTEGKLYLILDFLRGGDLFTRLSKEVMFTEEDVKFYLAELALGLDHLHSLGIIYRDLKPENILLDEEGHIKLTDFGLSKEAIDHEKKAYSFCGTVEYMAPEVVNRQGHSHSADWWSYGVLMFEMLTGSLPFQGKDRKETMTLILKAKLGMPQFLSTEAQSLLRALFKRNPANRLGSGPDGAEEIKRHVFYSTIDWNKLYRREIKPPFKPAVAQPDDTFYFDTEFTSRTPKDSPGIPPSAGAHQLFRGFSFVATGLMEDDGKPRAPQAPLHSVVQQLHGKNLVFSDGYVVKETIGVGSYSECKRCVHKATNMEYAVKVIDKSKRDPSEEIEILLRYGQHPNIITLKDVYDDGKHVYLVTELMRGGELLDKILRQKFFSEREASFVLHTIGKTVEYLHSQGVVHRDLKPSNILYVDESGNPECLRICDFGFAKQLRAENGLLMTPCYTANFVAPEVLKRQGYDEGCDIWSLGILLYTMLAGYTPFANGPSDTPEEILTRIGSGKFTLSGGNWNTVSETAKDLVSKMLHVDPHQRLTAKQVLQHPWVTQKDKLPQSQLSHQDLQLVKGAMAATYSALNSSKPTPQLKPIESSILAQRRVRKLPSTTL", "assay": "kinase panel", "assay_type": "biochemical"}, "CAMK4": {"target": "CAMK4 (Homo sapiens, UniProt Q16566)", "assay": "kinase panel", "assay_type": "biochemical"}, "TXK": {"target": "TXK (Homo sapiens, UniProt P42681)", "assay": "kinase panel", "assay_type": "biochemical"}, "[1]": {"target": "Adrenergic Alpha 2C receptor (Homo sapiens, UniProt P18825)", "assay": "Adrenergic Alpha 2C receptor assay", "assay_type": "binding"}, "DYRK1A": {"target": "DYRK1A (Homo sapiens, UniProt Q13627)", "assay": "kinase panel", "assay_type": "biochemical"}, "PI3K-ALPHA": {"target": "PI3K-ALPHA (Homo sapiens, UniProt P42336)", "assay": "kinase panel", "assay_type": "biochemical"}, "SIK": {"target": "SIK (Homo sapiens, UniProt P57059)", "assay": "kinase panel", "assay_type": "biochemical"}, "DAPK1": {"target": "DAPK1 (Homo sapiens, UniProt P53355)", "assay": "kinase panel", "assay_type": "biochemical"}, "TNIK": {"target": "TNIK (Homo sapiens, UniProt Q9UKE5)", "assay": "kinase panel", "assay_type": "biochemical"}, "FGFR2": {"target": "FGFR2 (Homo sapiens, UniProt P21802)", "assay": "kinase panel", "assay_type": "biochemical"}, "PLK4": {"target": "PLK4 (Homo sapiens, UniProt O00444)", "assay": "kinase panel", "assay_type": "biochemical"}, "PKC-ZETA": {"target": "PKC-ZETA (Homo sapiens, UniProt Q05513)", "sequence (Q05513 whole entry)": "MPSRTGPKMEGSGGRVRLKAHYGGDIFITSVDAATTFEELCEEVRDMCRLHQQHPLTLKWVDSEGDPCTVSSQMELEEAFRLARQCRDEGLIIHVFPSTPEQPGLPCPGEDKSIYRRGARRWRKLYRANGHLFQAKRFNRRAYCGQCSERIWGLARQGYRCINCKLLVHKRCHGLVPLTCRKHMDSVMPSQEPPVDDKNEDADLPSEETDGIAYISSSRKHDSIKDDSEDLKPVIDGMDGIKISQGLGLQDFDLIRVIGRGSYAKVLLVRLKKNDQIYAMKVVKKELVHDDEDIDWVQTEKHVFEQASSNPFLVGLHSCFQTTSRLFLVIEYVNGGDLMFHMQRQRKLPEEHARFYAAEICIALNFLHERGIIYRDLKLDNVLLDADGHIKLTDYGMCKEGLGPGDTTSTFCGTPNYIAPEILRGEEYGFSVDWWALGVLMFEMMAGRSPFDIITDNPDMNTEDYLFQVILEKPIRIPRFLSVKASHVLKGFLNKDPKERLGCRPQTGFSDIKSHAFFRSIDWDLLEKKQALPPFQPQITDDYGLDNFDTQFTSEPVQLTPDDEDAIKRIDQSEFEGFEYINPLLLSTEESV", "assay": "kinase panel", "assay_type": "biochemical"}, "AURORA-C": {"target": "AURORA-C (Homo sapiens, UniProt Q9UQB9)", "assay": "kinase panel", "assay_type": "biochemical"}, "AURORA-A": {"target": "AURORA-A (Homo sapiens, UniProt O14965)", "assay": "kinase panel", "assay_type": "biochemical"}, "IRAK4": {"target": "IRAK4 (Homo sapiens, UniProt Q9NWZ3)", "assay": "kinase panel", "assay_type": "biochemical"}, "CK1-EPSILON": {"target": "CK1-EPSILON (Homo sapiens, UniProt P49674)", "assay": "kinase panel", "assay_type": "biochemical"}, "DCAMKL2": {"target": "DCAMKL2 (Homo sapiens, UniProt Q8N568)", "assay": "kinase panel", "assay_type": "biochemical"}, "ARK5": {"target": "ARK5 (Homo sapiens, UniProt O60285)", "sequence (O60285 whole entry)": "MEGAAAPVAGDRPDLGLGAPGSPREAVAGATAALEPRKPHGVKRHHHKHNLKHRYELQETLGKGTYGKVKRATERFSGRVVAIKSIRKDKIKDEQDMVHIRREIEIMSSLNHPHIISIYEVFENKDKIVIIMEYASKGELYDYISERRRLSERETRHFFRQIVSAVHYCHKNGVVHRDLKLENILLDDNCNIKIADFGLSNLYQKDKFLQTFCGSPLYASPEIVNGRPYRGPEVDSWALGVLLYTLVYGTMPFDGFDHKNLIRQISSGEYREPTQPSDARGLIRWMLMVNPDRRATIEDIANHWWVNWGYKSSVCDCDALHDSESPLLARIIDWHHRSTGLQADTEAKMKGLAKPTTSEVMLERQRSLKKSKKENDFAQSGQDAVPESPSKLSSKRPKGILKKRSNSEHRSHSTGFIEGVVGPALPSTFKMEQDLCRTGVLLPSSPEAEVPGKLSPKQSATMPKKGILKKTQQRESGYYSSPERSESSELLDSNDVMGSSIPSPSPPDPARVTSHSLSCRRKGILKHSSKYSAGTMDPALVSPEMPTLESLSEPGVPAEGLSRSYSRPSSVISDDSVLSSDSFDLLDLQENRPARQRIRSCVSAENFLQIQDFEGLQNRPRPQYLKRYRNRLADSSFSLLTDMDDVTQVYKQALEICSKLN", "assay": "kinase panel", "assay_type": "biochemical"}, "FLT-3": {"target": "FLT-3 (Homo sapiens, UniProt P36888)", "assay": "kinase panel", "assay_type": "biochemical"}, "MAPKAPK2": {"target": "MAPKAPK2 (Homo sapiens, UniProt P49137)", "assay": "kinase panel", "assay_type": "biochemical"}, "TEC": {"target": "TEC (Homo sapiens, UniProt P42680)", "assay": "kinase panel", "assay_type": "biochemical"}, "P70S6K1": {"target": "P70S6K1 (Homo sapiens, UniProt P23443)", "assay": "kinase panel", "assay_type": "biochemical"}, "CDK4-CYCLIND": {"target": "CDK4-CYCLIND (Homo sapiens, UniProt P11802)", "assay": "kinase panel", "assay_type": "biochemical"}, "SGK1": {"target": "SGK1 (Homo sapiens, UniProt O00141)", "assay": "kinase panel", "assay_type": "biochemical"}, "BRSK1": {"target": "BRSK1 (Homo sapiens, UniProt Q8TDC3)", "assay": "kinase panel", "assay_type": "biochemical"}, "LATS2": {"target": "LATS2 (Homo sapiens, UniProt Q9NRM7)", "assay": "kinase panel", "assay_type": "biochemical"}, "EGFR": {"target": "EGFR (Homo sapiens, UniProt P00533)", "sequence (P00533 25-1210)": "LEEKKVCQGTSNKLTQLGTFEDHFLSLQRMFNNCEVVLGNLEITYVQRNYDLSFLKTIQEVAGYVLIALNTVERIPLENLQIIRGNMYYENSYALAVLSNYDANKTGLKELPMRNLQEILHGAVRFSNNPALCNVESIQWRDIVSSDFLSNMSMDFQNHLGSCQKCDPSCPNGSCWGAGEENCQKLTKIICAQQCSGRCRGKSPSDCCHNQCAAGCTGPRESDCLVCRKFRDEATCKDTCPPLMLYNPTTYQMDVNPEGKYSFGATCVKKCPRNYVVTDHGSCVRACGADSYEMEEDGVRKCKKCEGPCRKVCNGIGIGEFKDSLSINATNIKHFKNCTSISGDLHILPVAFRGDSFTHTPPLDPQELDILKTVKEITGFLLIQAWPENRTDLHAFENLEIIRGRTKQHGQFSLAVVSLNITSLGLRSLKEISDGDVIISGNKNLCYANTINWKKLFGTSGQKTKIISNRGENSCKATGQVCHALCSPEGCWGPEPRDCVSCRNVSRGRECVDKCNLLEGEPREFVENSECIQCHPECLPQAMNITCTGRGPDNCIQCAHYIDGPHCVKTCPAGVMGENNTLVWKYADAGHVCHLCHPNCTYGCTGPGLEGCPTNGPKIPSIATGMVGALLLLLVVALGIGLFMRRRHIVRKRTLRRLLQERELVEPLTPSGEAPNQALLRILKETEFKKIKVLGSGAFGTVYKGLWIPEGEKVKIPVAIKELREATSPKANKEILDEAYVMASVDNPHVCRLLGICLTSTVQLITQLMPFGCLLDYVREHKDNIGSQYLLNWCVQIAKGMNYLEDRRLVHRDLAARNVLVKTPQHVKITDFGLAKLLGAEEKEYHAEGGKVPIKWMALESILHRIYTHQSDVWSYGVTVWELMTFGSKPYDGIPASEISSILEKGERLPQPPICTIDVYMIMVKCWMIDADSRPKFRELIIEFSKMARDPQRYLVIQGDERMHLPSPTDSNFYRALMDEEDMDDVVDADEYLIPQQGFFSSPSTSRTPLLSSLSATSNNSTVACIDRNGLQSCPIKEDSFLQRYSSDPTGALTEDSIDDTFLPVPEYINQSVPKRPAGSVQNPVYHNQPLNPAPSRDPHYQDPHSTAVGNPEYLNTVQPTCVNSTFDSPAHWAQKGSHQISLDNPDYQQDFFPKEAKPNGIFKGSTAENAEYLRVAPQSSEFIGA", "assay": "kinase panel", "assay_type": "biochemical"}, "PAK5": {"target": "PAK5 (Homo sapiens, UniProt Q9P286)", "assay": "kinase panel", "assay_type": "biochemical"}, "MSSK1": {"target": "MSSK1 (Homo sapiens, UniProt Q9UPE1)", "assay": "kinase panel", "assay_type": "biochemical"}, "FES": {"target": "FES (Homo sapiens, UniProt P07332)", "assay": "kinase panel", "assay_type": "biochemical"}, "KIT": {"target": "KIT (Homo sapiens, UniProt P10721)", "assay": "kinase panel", "assay_type": "biochemical"}, "TYRO3": {"target": "TYRO3 (Homo sapiens, UniProt Q06418)", "assay": "kinase panel", "assay_type": "biochemical"}, "EPH-B1": {"target": "EPH-B1 (Homo sapiens, UniProt P54762)", "assay": "kinase panel", "assay_type": "biochemical"}, "HIPK4": {"target": "HIPK4 (Homo sapiens, UniProt Q8NE63)", "assay": "kinase panel", "assay_type": "biochemical"}, "ABL1": {"target": "ABL1 (Homo sapiens, UniProt P00519)", "assay": "kinase panel", "assay_type": "biochemical"}, "AMP-A2B1G1": {"target": "AMP-A2B1G1 (Homo sapiens, UniProt P54646)", "assay": "kinase panel", "assay_type": "biochemical"}, "CHEK2": {"target": "CHEK2 (Homo sapiens, UniProt O96017)", "assay": "kinase panel", "assay_type": "biochemical"}, "SPHK1": {"target": "SPHK1 (Homo sapiens, UniProt Q9NYA1)", "assay": "kinase panel", "assay_type": "biochemical"}, "BRK": {"target": "BRK (Homo sapiens, UniProt Q13882)", "sequence (Q13882 whole entry)": "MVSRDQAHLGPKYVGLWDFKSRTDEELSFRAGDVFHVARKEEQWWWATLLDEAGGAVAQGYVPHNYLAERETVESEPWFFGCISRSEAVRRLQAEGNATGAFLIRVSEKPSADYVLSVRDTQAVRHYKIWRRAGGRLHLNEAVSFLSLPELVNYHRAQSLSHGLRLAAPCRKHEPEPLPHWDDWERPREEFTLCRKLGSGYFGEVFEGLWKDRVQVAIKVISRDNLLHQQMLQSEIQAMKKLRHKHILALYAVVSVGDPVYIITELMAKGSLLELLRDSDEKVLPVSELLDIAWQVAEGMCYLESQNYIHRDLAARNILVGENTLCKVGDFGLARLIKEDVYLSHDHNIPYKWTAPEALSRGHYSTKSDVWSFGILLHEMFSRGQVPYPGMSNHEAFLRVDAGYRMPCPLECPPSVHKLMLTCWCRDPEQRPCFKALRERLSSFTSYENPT", "assay": "kinase panel", "assay_type": "biochemical"}},
  "note": "pIC50: −log10 of the molar value.",
  "data": [
    {"smiles": "O=C(Nc1nccs1)C(c1cc(F)ccc1O)N1Cc2ccccc2C1=O", "note": "(centres unmarked) [EAI045, 2-(5-fluoro-2-hydroxyphenyl)-2-(1-oxo-2,3-dihydro-1H-isoindol-2-yl)-N-(1,3-thiazol-2-yl)acetamide]", "values": [
      {"measurement": "inhibition at 1 µM", "setting": "LIMK1", "result": 0, "unit": "%"},
      {"measurement": "inhibition at 1 µM", "setting": "JNK1", "result": 0, "unit": "%"},
      {"measurement": "inhibition at 1 µM", "setting": "TAK1-TAB1", "result": 0, "unit": "%"},
      {"measurement": "inhibition at 1 µM", "setting": "MARK4", "result": 0, "unit": "%"},
      {"measurement": "inhibition at 1 µM", "setting": "CHEK1", "result": 0, "unit": "%"},
      {"measurement": "inhibition at 1 µM", "setting": "RSK1", "result": 0, "unit": "%"},
      {"measurement": "inhibition at 1 µM", "setting": "CAMK4", "result": 1, "unit": "%"},
      {"measurement": "inhibition at 1 µM", "setting": "TXK", "result": 0, "unit": "%"},
      {"measurement": "pIC50", "setting": "[1]", "result": "< 4.52"},
      {"measurement": "inhibition at 1 µM", "setting": "DYRK1A", "result": 0, "unit": "%"},
      {"measurement": "inhibition at 1 µM", "setting": "PI3K-ALPHA", "result": 0, "unit": "%"},
      {"measurement": "inhibition at 1 µM", "setting": "SIK", "result": 0, "unit": "%"},
      {"measurement": "inhibition at 1 µM", "setting": "DAPK1", "result": 0, "unit": "%"},
      {"measurement": "inhibition at 1 µM", "setting": "TNIK", "result": 0, "unit": "%"},
      {"measurement": "inhibition at 1 µM", "setting": "FGFR2", "result": 1, "unit": "%"},
      {"measurement": "inhibition at 1 µM", "setting": "PLK4", "result": 0, "unit": "%"},
      {"measurement": "inhibition at 1 µM", "setting": "PKC-ZETA", "result": 0, "unit": "%"},
      {"measurement": "inhibition at 1 µM", "setting": "AURORA-C", "result": 0, "unit": "%"},
      {"measurement": "inhibition at 1 µM", "setting": "AURORA-A", "result": 0, "unit": "%"},
      {"measurement": "inhibition at 1 µM", "setting": "IRAK4", "result": 0, "unit": "%"},
      {"measurement": "inhibition at 1 µM", "setting": "CK1-EPSILON", "result": 0, "unit": "%"},
      {"measurement": "inhibition at 1 µM", "setting": "DCAMKL2", "result": 0, "unit": "%"},
      {"measurement": "inhibition at 1 µM", "setting": "ARK5", "result": 0, "unit": "%"},
      {"measurement": "inhibition at 1 µM", "setting": "FLT-3", "result": 0, "unit": "%"},
      {"measurement": "inhibition at 1 µM", "setting": "MAPKAPK2", "result": 0, "unit": "%"},
      {"measurement": "inhibition at 1 µM", "setting": "TEC", "result": 4, "unit": "%"},
      {"measurement": "inhibition at 1 µM", "setting": "P70S6K1", "result": 0, "unit": "%"},
      {"measurement": "inhibition at 1 µM", "setting": "CDK4-CYCLIND", "result": 0, "unit": "%"},
      {"measurement": "inhibition at 1 µM", "setting": "SGK1", "result": 6, "unit": "%"},
      {"measurement": "inhibition at 1 µM", "setting": "BRSK1", "result": 0, "unit": "%"},
      {"measurement": "inhibition at 1 µM", "setting": "LATS2", "result": 2, "unit": "%"},
      {"measurement": "inhibition at 1 µM", "setting": "EGFR", "result": 7, "unit": "%"},
      {"measurement": "inhibition at 1 µM", "setting": "PAK5", "result": 0, "unit": "%"},
      {"measurement": "inhibition at 1 µM", "setting": "MSSK1", "result": 0, "unit": "%"},
      {"measurement": "inhibition at 1 µM", "setting": "FES", "result": 2, "unit": "%"},
      {"measurement": "inhibition at 1 µM", "setting": "KIT", "result": 0, "unit": "%"},
      {"measurement": "inhibition at 1 µM", "setting": "TYRO3", "result": 0, "unit": "%"},
      {"measurement": "inhibition at 1 µM", "setting": "EPH-B1", "result": 0, "unit": "%"},
      {"measurement": "inhibition at 1 µM", "setting": "HIPK4", "result": 0, "unit": "%"},
      {"measurement": "inhibition at 1 µM", "setting": "ABL1", "result": 1, "unit": "%"},
      {"measurement": "inhibition at 1 µM", "setting": "AMP-A2B1G1", "result": 0, "unit": "%"},
      {"measurement": "inhibition at 1 µM", "setting": "CHEK2", "result": 0, "unit": "%"},
      {"measurement": "inhibition at 1 µM", "setting": "SPHK1", "result": 0, "unit": "%"},
      {"measurement": "inhibition at 1 µM", "setting": "BRK", "result": 0, "unit": "%"}
    ]}
  ]
}
